Each structure is given as a SMILES string. pIC50: −log10 of the molar value. Read-outs that look alike come from different tables or passages of the source.

For one assay, the system named is Mino cells. Nature of the assay: Antiproliferative effect, MTS cell viability assay, Mino cells. The conditions noted are these: Homo sapiens, MINO, Mino mantle cell lymphoma cells; read-out: IC50 (anti-proliferation) Mino cells. It counts as cell-based. The method in brief:
(§1)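 Mino and JeKo-1 mantle B-cell lymphoma lines were exposed to compound at 0, 0.001, 0.01, 0.1, 1 and 10 μM for 72 h. Viability was read by MTS reduction to formazan, measured as absorbance at 490 nm.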

Another assay addresses BTK (Homo sapiens, UniProt Q06187). The assay can be described thus: Degradation of BTK protein in Namalwa cells (Western blot; DC50, Dmax). The note with it: for DC50: cell line not given.
For another assay, the system named is JeKo-1 cells. The assay can be described thus: Antiproliferative effect, MTS cell viability assay, JeKo-1 cells. Type of assay: cell-based. The conditions noted are these: Homo sapiens; JeKo-1 mantle cell lymphoma cells; read-out: IC50 (anti-proliferation) JeKO-1 cells. The method in brief: as §1
Where [1] appears, read: read-out: DC50 (BTK degradation), concentration giving 50% reduction of BTK expression level.
Setting [2] is: read-out: Dmax (BTK degradation).

Chain of BTK (Q06187 whole entry): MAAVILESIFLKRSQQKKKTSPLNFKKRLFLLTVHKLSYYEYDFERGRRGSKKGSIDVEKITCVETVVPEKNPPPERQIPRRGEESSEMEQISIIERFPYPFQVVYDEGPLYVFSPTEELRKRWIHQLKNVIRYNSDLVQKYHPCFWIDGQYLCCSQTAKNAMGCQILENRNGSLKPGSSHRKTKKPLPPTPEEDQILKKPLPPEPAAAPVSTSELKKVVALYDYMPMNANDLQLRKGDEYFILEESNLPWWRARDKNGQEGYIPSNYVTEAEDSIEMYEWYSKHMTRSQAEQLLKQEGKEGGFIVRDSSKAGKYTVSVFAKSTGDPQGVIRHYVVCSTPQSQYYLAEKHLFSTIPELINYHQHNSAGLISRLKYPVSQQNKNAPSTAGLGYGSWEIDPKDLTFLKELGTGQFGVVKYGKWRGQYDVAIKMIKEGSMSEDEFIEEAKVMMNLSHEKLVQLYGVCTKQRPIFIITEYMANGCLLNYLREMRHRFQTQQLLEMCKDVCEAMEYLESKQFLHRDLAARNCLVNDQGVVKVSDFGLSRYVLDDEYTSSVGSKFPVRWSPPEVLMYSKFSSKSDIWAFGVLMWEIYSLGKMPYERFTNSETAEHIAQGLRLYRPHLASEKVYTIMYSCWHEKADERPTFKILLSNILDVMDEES

Consider `Nc1ncnc2c1c(-c1ccc(Oc3ccccc3)cc1)nn2C1CCN(CCN2CCC(CN3CCC(c4ccc5c(c4)oc(=O)n5C4CCC(=O)NC4=O)CC3)C2)CC1` (stereo not shown) [Compound 542, 3-(6-(1-((1-(2-(4-(4-amino-3-(4-phenoxyphenyl)-1H-pyrazolo[3,4-d]pyrimidin-1-yl)piperidin-1-yl)ethyl)pyrrolidin-3-yl)methyl)piperidin-4-yl)-2-oxobenzo[d]oxazol-3(2H)-yl)piperidine-2,6-dione], for which the pIC50 with Mino cells and with JeKo-1 cells was 5.00 to 6.00 in each case. Moreover, on BTK (setting [1]), the DC50 lay in the range of 0.01 to 0.05 µM. For the same compound, the Dmax on BTK (setting [2]) is > 75%.
For `Nc1ncnc2c1c(-c1ccc(Oc3ccccc3)cc1)nn2C1CCN(C2CCN(CCCC#Cc3ccc(N4CCC(=O)NC4=O)cc3)C2)CC1` (stereo not shown) [Compound 537, 1-(4-(5-(3-(4-(4-amino-3-(4-phenoxyphenyl)-1H-pyrazolo[3,4-d]pyrimidin-1-yl)piperidin-1-yl)pyrrolidin-1-yl)pent-1-yn-1-yl)phenyl)dihydropyrimidine-2,4(1H,3H)-dione], the pIC50 in the assay on Mino cells and in the assay with JeKo-1 cells was < 5.00 each time. Moreover, the DC50 on BTK (setting [1]) was > 0.05 µM. Also, on BTK (setting [2]), the Dmax was > 50%.
Turning to `NC(=O)c1c(-c2ccc(Oc3ccccc3)cc2)nn2c1NCCC2C1CCN(CC2CCN(C(=O)N3CCC(N4CCC(c5ccc6c(c5)CN(C5CCC(=O)NC5=O)C6=O)CC4)CC3)CC2)CC1` (stereo not shown) [Compound 368, 7-(1-((1-(4-(2-(2,6-dioxopiperidin-3-yl)-1-oxoisoindolin-5-yl)-[1,4′-bipiperidine]-1′-carbonyl)piperidin-4-yl)methyl)piperidin-4-yl)-2-(4-phenoxyphenyl)-4,5,6,7-tetrahydropyrazolo[1,5-a]pyrimidine-3-carboxamide], the pIC50 in the assay with Mino cells was > 6.00; in the assay on JeKo-1 cells, 5.00 to 6.00. Further, on BTK, the Dmax was > 90%. In addition, the DC50 on BTK (BTK degradation) was < 0.01 µM.
`Nc1ncnc2c1c(-c1ccc(Oc3ccccc3)cc1)nn2C1CCN(C2CCN(CCN3CCN(c4ccc(NC5CCC(=O)NC5=O)cc4)CC3)CC2)CC1` (stereo not shown) [Compound 581, 3-((4-(4-(2-(4-(4-amino-3-(4-phenoxyphenyl)-1H-pyrazolo[3,4-d]pyrimidin-1-yl)-[1,4′-bipiperidin]-1′-yl)ethyl)piperazin-1-yl)phenyl)amino)piperidine-2,6-dione]: the pIC50 with Mino cells and in the assay with JeKo-1 cells was > 6.00 in each case. Besides, the DC50 on BTK (setting [1]) is < 0.01 µM. Besides, at BTK (setting [2]), the Dmax is > 90%.
As to `NC(=O)c1c(-c2ccc(Oc3ccccc3)cc2)nn2c1NCCC2C1CCN(CC2CCN(C(=O)N3CCC(N4CCC(c5ccc6c(c5)C(=O)N(C5CCC(=O)NC5=O)C6=O)CC4)CC3)CC2)CC1` (stereo not shown) [Compound 367, 7-(1-((1-(4-(2-(2,6-dioxopiperidin-3-yl)-1,3-dioxoisoindolin-5-yl)-[1,4′-bipiperidine]-1′-carbonyl)piperidin-4-yl)methyl)piperidin-4-yl)-2-(4-phenoxyphenyl)-4,5,6,7-tetrahydropyrazolo[1,5-a]pyrimidine-3-carboxamide], the figures for the pIC50 in the assay with Mino cells and with JeKo-1 cells were > 6.00 and 5.00 to 6.00, respectively. Besides, the Dmax at BTK is > 90%. Further, at BTK (BTK degradation), the DC50 is 0.01 to 0.05 µM.
Consider `NC1=NC=NC2C1C(c1ccc(Oc3ccccc3)cc1)=NN2C1CCN(C2CN(C(=O)N3CC(C4CN(c5ccc6c(c5)C(=O)N(C5CCC(=O)NC5=O)C6=O)C4)C3)C2)CC1` (stereo not shown) [Compound 499, 5-(1′-(3-(4-(4-amino-3-(4-phenoxyphenyl)-3a,7a-dihydro-1H-pyrazolo[3,4-d]pyrimidin-1-yl)piperidin-1-yl)azetidine-1-carbonyl)-[3,3′-biazetidin]-1-yl)-2-(2,6-dioxopiperidin-3-yl)isoindoline-1,3-dione], for which the pIC50 in the assay on Mino cells was > 6.00; in the assay on JeKo-1 cells, 5.00 to 6.00. In addition, the DC50 at BTK (setting [1]) lay within 0.01 to 0.05 µM. Further, the Dmax at BTK (setting [2]) was > 75%.
Turning to `Nc1ncnc2c1c(-c1ccc(Oc3ccccc3)cc1)nn2[C@@H]1CCCN(C2CCN(C(=O)N3CCC(CCCC4CCN(c5ccc6c(c5)CN(C5CCC(=O)NC5=O)C6=O)CC4)CC3)CC2)C1` (stereo partly drawn) [Compound 196, 3-(5-(4-(3-(1-((R)-3-(4-amino-3-(4-phenoxyphenyl)-1H-pyrazolo[3,4-d]pyrimidin-1-yl)-[1,4′-bipiperidine]-1′-carbonyl)piperidin-4-yl)propyl)piperidin-1-yl)-1-oxoisoindolin-2-yl)piperidine-2,6-dione], the pIC50 in the assay with Mino cells and in the assay with JeKo-1 cells was 5.00 to 6.00 throughout. Moreover, on BTK, the Dmax is > 75%. This compound also displayed a DC50 at BTK (BTK degradation) of 0.01 to 0.05 µM.
For the compound `Nc1ncnc2c1c(-c1ccc(Oc3ccccc3)cc1)nn2C1CCN(C(=O)N2CC(N3CCN(c4ccc5c(c4)C(=O)N([C@@H]4CCC(=O)NC4=O)C5=O)CC3)C2)CC1` [Compound 485, (R)-5-(4-(1-(4-(4-amino-3-(4-phenoxyphenyl)-1H-pyrazolo[3,4-d]pyrimidin-1-yl)piperidine-1-carbonyl)azetidin-3-yl)piperazin-1-yl)-2-(2,6-dioxopiperidin-3-yl)isoindoline-1,3-dione], the pIC50 in the assay on Mino cells and in the assay with JeKo-1 cells was > 6.00 in each case. Also, the DC50 on BTK (setting [1]) is < 0.01 µM. For the same compound, the Dmax at BTK (setting [2]) was > 90%.
Consider `Nc1ncnc2c1c(-c1ccc(Oc3ccccc3)cc1)nn2C1CCN(CCCN2CCC(CN3CCN(c4ccc(N5CCC(=O)NC5=O)cc4)CC3)CC2)CC1` [Compound 556, 1-(4-(4-((1-(3-(4-(4-amino-3-(4-phenoxyphenyl)-1H-pyrazolo[3,4-d]pyrimidin-1-yl)piperidin-1-yl)propyl)piperidin-4-yl)methyl)piperazin-1-yl)phenyl)dihydropyrimidine-2,4(1H,3H)-dione], for which the pIC50 in the assay on Mino cells and with JeKo-1 cells was > 6.00 throughout. In addition, the DC50 at BTK (setting [1]) is < 0.01 µM. Moreover, the Dmax at BTK (setting [2]) is > 90%.
For `NC(=O)c1c(-c2ccc(Oc3ccccc3)cc2)nn2c1NCC[C@H]2C1CCN(C2CCN(CC3CCN(c4ccc5c(c4)C(=O)N(C4CCC(=O)NC4=O)C5=O)CC3)CC2)CC1` (stereo partly drawn) [Compound 321, (7S)-7-(1′-((1-(2-(2,6-dioxopiperidin-3-yl)-1,3-dioxoisoindolin-5-yl)piperidin-4-yl)methyl)-[1,4′-bipiperidin]-4-yl)-2-(4-phenoxyphenyl)-4,5,6,7-tetrahydropyrazolo[1,5-a]pyrimidine-3-carboxamide], the pIC50 in the assay on Mino cells and in the assay on JeKo-1 cells was < 5.00 throughout. The maximal degradation (Dmax) at BTK is > 75%. Also, at BTK (BTK degradation), the DC50 lay in the range of 0.01 to 0.05 µM.
On to `Nc1ncnc2c1c(-c1ccc(Oc3ccccc3)cc1)nn2C1CCN(C2CCN(CCN3CCN(c4ccc5c(c4)CN(C4CCC(=O)NC4=O)C5=O)CC3)CC2)CC1` (stereo not shown) [Compound 218, 3-(5-(4-(2-(4-(4-amino-3-(4-phenoxyphenyl)-1H-pyrazolo[3,4-d]pyrimidin-1-yl)-[1,4′-bipiperidin]-1′-yl)ethyl)piperazin-1-yl)-1-oxoisoindolin-2-yl)piperidine-2,6-dione], for which the values for the pIC50 with Mino cells and in the assay with JeKo-1 cells were 5.00 to 6.00 and > 6.00, respectively. Further, the Dmax on BTK was > 75%. In addition, the DC50 on BTK (BTK degradation) lay within 0.01 to 0.05 µM.
Regarding `Nc1ncnc2c1c(-c1ccc(Oc3ccccc3)cc1)nn2C1CCN(C[C@@H]2CCN(C[C@H]3CCN(c4ccc5c(c4)C(=O)N(C4CCC(=O)NC4=O)C5=O)C3)C2)CC1` (stereo partly drawn) [Compound 447d, 5-((R)-3-(((S)-3-((4-(4-amino-3-(4-phenoxyphenyl)-1H-pyrazolo[3,4-d]pyrimidin-1-yl)piperidin-1-yl)methyl)pyrrolidin-1-yl)methyl)pyrrolidin-1-yl)-2-(2,6-dioxopiperidin-3-yl)isoindoline-1,3-dione], the pIC50 in the assay on Mino cells and with JeKo-1 cells was 5.00 to 6.00 in each case. The DC50 at BTK (setting [1]) is 0.01 to 0.05 µM. Moreover, the Dmax at BTK (setting [2]) is > 90%.
On to `NC(=O)c1c(-c2ccc(Oc3ccccc3)cc2)nn2c1NCC[C@H]2C1CCN(C2CCN(C(=O)N3CCN(Cc4ccc5c(c4)CN(C4CCC(=O)NC4=O)C5=O)CC3)CC2)CC1` (stereo partly drawn) [Compound 380, (7S)-7-(1′-(4-((2-(2,6-dioxopiperidin-3-yl)-1-oxoisoindolin-5-yl)methyl)piperazine-1-carbonyl)-[1,4′-bipiperidin]-4-yl)-2-(4-phenoxyphenyl)-4,5,6,7-tetrahydropyrazolo[1,5-a]pyrimidine-3-carboxamide], for which the pIC50 in the assay on Mino cells was 5.00 to 6.00; with JeKo-1 cells it was < 5.00. Further, at BTK, the Dmax is > 75%. Also, the DC50 at BTK (BTK degradation) is > 0.05 µM.
Taken in the same sequence, the figures for `NC(=O)c1c(-c2ccc(Oc3ccccc3)cc2)nn2c1NCCC2C1CCN(C(=O)N2CCC(CCN3CCC(c4ccc5c(c4)CN(C4CCC(=O)NC4=O)C5=O)CC3)CC2)CC1` (stereo not shown) [Compound 286, 7-(1-(4-(2-(4-(2-(2,6-dioxopiperidin-3-yl)-1-oxoisoindolin-5-yl)piperidin-1-yl)ethyl)piperidine-1-carbonyl)piperidin-4-yl)-2-(4-phenoxyphenyl)-4,5,6,7-tetrahydropyrazolo[1,5-a]pyrimidine-3-carboxamide] were 5.00 to 6.00, 5.00 to 6.00, > 75% and > 0.05 µM.
Taken in the same sequence, the figures for `NC(=O)c1c(-c2ccc(Oc3ccccc3)cc2)nn2c1NCCC2C1CCN(CC2CCN(CCC3CCN(c4ccc5c(c4)C(=O)N(C4CCC(=O)NC4=O)C5=O)CC3)CC2)CC1` (stereo not shown) [Compound 317, 7-(1-((1-(2-(1-(2-(2,6-dioxopiperidin-3-yl)-1,3-dioxoisoindolin-5-yl)piperidin-4-yl)ethyl)piperidin-4-yl)methyl)piperidin-4-yl)-2-(4-phenoxyphenyl)-4,5,6,7-tetrahydropyrazolo[1,5-a]pyrimidine-3-carboxamide] were 5.00 to 6.00, < 5.00, > 75% and > 0.05 µM.
For the compound `NC1=NC=NC2C1C(c1ccc(Oc3ccccc3)cc1)=NN2C1CCCN(C2CN(C(=O)N3CC(C4CN(c5ccc6c(c5)CN(C5CCC(=O)NC5=O)C6=O)C4)C3)C2)C1` (stereo not shown) [Compound 502], the pIC50 in the assay on Mino cells and in the assay with JeKo-1 cells was > 6.00 throughout. At BTK (setting [1]), the DC50 was 0.01 to 0.05 µM. For the same compound, at BTK (setting [2]), the Dmax is > 90%.

(Values after patent US12139492B2 (Endotarget Inc., priority 2021, dated 2024).)
